Test results published in patent US9642897B2, “Treatment of bone diseases” (THE UNIVERSITY OF SYDNEY, priority 2011, dated 2017).
Entries after “also recorded” stand apart in the source; their conditions may differ.

Tests used:
[1] = test system: mesenchymal stem cells (MSC); assay: Mineralization (alizarin red staining) of osteogenic differentiating MSC; format: cell-based, human; conditions: MSC in OIM, 2 weeks
Method: Human mesenchymal stem cells (MSC) (BioWhittaker, Walkersville, Md., USA) were plated at a density of 5×10^5 cells per well in 150 cm^2 dishes containing MSC growth medium (GM) (BioWhittaker, Walkersville, Md., USA) with 10% fetal calf serum (FCS) and incubated at 37° C. After the cells reached 60% confluence, media was replaced with either GM or osteoblastogenesis induction media (OIM) (prepared with MSCGM, 10% FCS, […] dexamethasone, 10 mmol/L β glycerol phosphate and 50 μg/mL ascorbic acid) for 21 days. Media was changed every three days. Media obtained at the beginning of the 1st, 2nd and 3rd wk of differentiation as well as conditioned media were collected for measurement of IFNγ. Concentrations of IFNγ in the conditioned media were measured from both GM and OM treated cells using Human […] DuoSet ELISA Development Kit (R&D Systems, Minneapolis, Mich., USA). To compare between the osteogenic and the immune effect of IFNγ, Jurkat cells and human T lymphocytes were plated at a density of 5×10^5 cells per well in 150 cm^2 dishes containing RPMI media.
(§1) Subsequently, the effect of chemical inhibition/stimulation of the intermediate and end products of kynurenine activation on osteogenic differentiating MSC was then characterised.
These compounds were added to the MSC media on day one of differentiation. Cells were treated for […]. Media was changed every three days. After three weeks of treatment, osteoblastogenesis and changes in osteogenic genes were quantified as described above.

RUNX2, OCN and OPN = assay: Osteogenic gene expression (RUNX2, OCN, OPN) in differentiating MSC; format: cell-based, human
Method: as §1
These compounds were added to the MSC media on day one of differentiation. […] Media was changed every three days. […]

[2] = test system: bone marrow stromal cells (BMSC) from IDO-1 KO and WT mice; assay: Osteogenic differentiation of BMSC from IDO-1 KO and WT mice (alizarin red); format: cell-based; conditions: vs vehicle
Method: One side tibiae from 9-month-old IDO-1^−/− and IDO-1^+/+ mice (n=6 per group) were flushed using a 21-gauge needle attached to a 10 ml syringe filled with Dulbecco's modified Eagle's medium (DME) (GIBCO BRL, Gaithersburg, Md., USA). The bone marrow cells were filtered through a cell strainer with a 70-micron nylon mesh (BD Bioscience, Bedford, Mass., USA) and plated in 10 cm^2 tissue culture dishes. The cells were incubated in growth medium at 37° C. with 5% humidified CO2 and isolated by their adherence to tissue culture plastic. Medium was aspirated and replaced with fresh medium every 2 to 3 days to remove non-adherent cells. The adherent MSC were grown to confluency for about 7 days and defined as MSC at passage 0, harvested with 0.25% trypsin and 1 mM EDTA for 5 min at 37° C., diluted 1:3 in growth medium, plated and grown to confluency for further expansion. After 2nd and 3rd passages, MSC were used for subsequent experiments.
To induce differentiation, a total of 10^4 cells were diluted in osteogenic medium and plated in 24 dishes per group in the presence or absence of either quinolinic or picolinic acid. Media was aspirated and replaced with fresh osteogenic medium every 3 days. At 21 days, medium was removed and cultures were fixed in 10% v/v formol/saline solution for 5 min. Cultures were stained with Alizarin Red, which was then extracted and quantified at 570 nm.

[3] = Therapeutic safety of oral PA: weight, water consumption, survival; format: in vivo, C57BL/6 mice; conditions: for Weight: after 6 weeks; for Water left: initial volume 500 mL, weekly average
Method: Nine-month-old oophorectomised (OVX) and SHAM-operated C57BL/6 mice (n=24 per group) were obtained from the Animal Resources Centre (Perth, Wash.). After 2 weeks of acclimation, mice were divided into four groups (Table 2) and received treatment in their drinking water for a total of 6 weeks. Mice treated with plain water were used as controls. Mice were housed in cages in a limited access room.
Water left in the bottle (initial volume of 500 mL) was also quantified every week. […] These volumes correspond with the drinking pattern previously reported in this mouse model. (iii) Effect of Oral PA on Mineral Absorption in OVX Mice

[4] = test system: bone marrow stromal cells (BMSC); assay: Ex vivo cultures of BMSC from PA-treated mice (alizarin red, ALP, CFU-OB); format: in vivo, C57BL/6 mice
Method: To establish adherent bone marrow cultures, both tibiae from PA- and vehicle-treated animals (n=6 per group) were flushed using a 21-gauge needle attached to a 10 ml syringe filled with Dulbecco's modified Eagle's Medium (DMEM) (GIBCO BRL, Gaithersburg, Md., USA). Cells from both tibiae were filtered through a cell strainer with 70-micron nylon mesh (BD Bioscience, Bedford, Mass., USA) and then combined to produce a volume of 2 ml containing ˜10^7 cells/ml. Six-well plate cultures were then established in triplicate, with each well containing a 100-μl aliquot of cell suspension combined with 4 ml of fresh -MEM medium. […]
To induce differentiation, a total of 10^4 cells were diluted in osteogenic medium (prepared with DMEM, 10% FCS, […] dexamethasone, 10 mmol/L β glycerol phosphate and 50 μg/mL ascorbic acid) and plated in six well plates. […] For alkaline phosphatase quantification, the colonies with more than 10% of cells staining positive for ALP were considered as colony forming units-osteoblasts (CFU-OB). For alizarin red quantification, matrix mineralization was quantified by extracting the Alizarin red staining with 100 mM cetypyridinium chloride (Sigma, St. Louis, Mo., USA) at room temperature for 3 h. The absorbance of the extracted Alizarin red S staining was measured at 570 nm.

[5] = highest dose (100 μM), 14 days post-induction

Question: For `O=C(O)c1ccccn1` [PA, pyridine-2-carboxylic acid], which “osteoblastogenesis / mineralisation (alizarin red)” value [1] is on record?
Answer: The value was “accelerated mineralisation; also recorded: stimulate osteoblastogenesis”.

Question: What about the “relative gene expression of RUNX2, OCN and OPN” value (RUNX2, OCN and OPN; differentiating MSC) of the same compound?
Answer: Its value is “increased”.

Question: And the “RE of RUNX2” value (RUNX2, OCN and OPN; [5])?
Answer: The value was 1.43.

Question: What about the RE of osteocalcin (RUNX2, OCN and OPN; [5]) of the same compound?
Answer: The RE of osteocalcin was 1.93.

Question: What about the RE of osteopontin (RUNX2, OCN and OPN; [5]) of the same compound?
Answer: The RE of osteopontin was 1.35.

Question: And the “mineralisation (alizarin red staining)” value [2]?
Answer: The value was “higher levels of mineralisation”.

Question: What about the Weight ([3]; OVX, PA250 (250 mg/kg/d)) of the same compound?
Answer: The Weight was 26 ± 1.6 gm.

Question: What about the Water left ([3]; OVX, PA250) of the same compound?
Answer: The Water left was 195 ± 28 ml/week.

Question: And the Weight ([3]; OVX, PA500 (500 mg/kg/d))?
Answer: The Weight was 28 ± 0.4 gm.

Question: And the Water left ([3]; OVX, PA500)?
Answer: The Water left was 195 ± 35 ml/week.

Question: And the Weight ([3]; OVX, PA1000 (1 gm/kg/d))?
Answer: The Weight was 26 ± 1.3 gm.

Question: And the Water left ([3]; OVX, PA1000)?
Answer: The Water left was 250 ± 38 ml/week.

Question: And the Weight ([3]; Sham, PA250 (250 mg/kg/d))?
Answer: Its Weight is 27 ± 2.0 gm.

Question: What about the Water left ([3]; Sham, PA250) of the same compound?
Answer: The Water left was 200 ± 32 ml/week.

Question: What about the Weight ([3]; Sham, PA500 (500 mg/kg/d)) of the same compound?
Answer: Its Weight is 26 ± 2.4 gm.

Question: And the Water left ([3]; Sham, PA500)?
Answer: Its Water left is 155 ± 35 ml/week.

Question: And the Weight ([3]; Sham, PA1000 (1 gm/kg/d))?
Answer: Its Weight is 26 ± 1.3 gm.

Question: What about the Water left ([3]; Sham, PA1000) of the same compound?
Answer: Its Water left is 260 ± 45 ml/week.

Question: What about the mice survival rate ([3]; female, C57BL/6, mouse, in vivo, po, 6 weeks) of the same compound?
Answer: Its mice survival rate is 100%.

Question: What about the side effects ([3]; oral PA 6 weeks) of the same compound?
Answer: Its side effects is “no evidence of side effects”.

Question: And the “weight and water consumption vs vehicle-treated controls” value ([3]; oral PA 6 weeks)?
Answer: Its value is “no difference”.

Question: And the “capacity to mineralise (alizarin red), ex vivo BMSC” value ([4]; SHAM and OVX mice treated 6 weeks, 2 weeks culture in osteogenic media)?
Answer: The value was “significantly capacity to mineralise”.

Question: What about the “number of colony forming units-osteoblasts (CFU-OB)” value ([4]; cultures from PA-treated vs vehicle treated mice) of the same compound?
Answer: The value was “significantly higher”.
